Assay results reported in patent publication US8362012B2, “Benzoxazine benzimidazole derivative, a pharmaceutical composition comprising the same, and a use thereof” (Daewoong Pharmaceutical Co., Ltd., priority 2008, dated 2013).

Key:
[1] = target: T1, human vanilloid-1 (hVR-1) in hVR-1-HEK293 cell line (Homo sapiens, UniProt Q8NER1); experiment: Inhibitory effect on calcium influx via a vanilloid receptor (capsaicin-stimulated, Fluo-3/AM); assay type: cell-based; details: hVR-1-HEK293 cells, 1 μM of capsaicin, compounds 0.015˜2000 nM; read-out: I.A. (inhibitory activity), IC50 on intracellular calcium influx
T1 construct: expressed in transfected cells; host or cells: HEK293 Tet-on strain, doxycycline-induced
T1 sequence (Q8NER1 whole entry): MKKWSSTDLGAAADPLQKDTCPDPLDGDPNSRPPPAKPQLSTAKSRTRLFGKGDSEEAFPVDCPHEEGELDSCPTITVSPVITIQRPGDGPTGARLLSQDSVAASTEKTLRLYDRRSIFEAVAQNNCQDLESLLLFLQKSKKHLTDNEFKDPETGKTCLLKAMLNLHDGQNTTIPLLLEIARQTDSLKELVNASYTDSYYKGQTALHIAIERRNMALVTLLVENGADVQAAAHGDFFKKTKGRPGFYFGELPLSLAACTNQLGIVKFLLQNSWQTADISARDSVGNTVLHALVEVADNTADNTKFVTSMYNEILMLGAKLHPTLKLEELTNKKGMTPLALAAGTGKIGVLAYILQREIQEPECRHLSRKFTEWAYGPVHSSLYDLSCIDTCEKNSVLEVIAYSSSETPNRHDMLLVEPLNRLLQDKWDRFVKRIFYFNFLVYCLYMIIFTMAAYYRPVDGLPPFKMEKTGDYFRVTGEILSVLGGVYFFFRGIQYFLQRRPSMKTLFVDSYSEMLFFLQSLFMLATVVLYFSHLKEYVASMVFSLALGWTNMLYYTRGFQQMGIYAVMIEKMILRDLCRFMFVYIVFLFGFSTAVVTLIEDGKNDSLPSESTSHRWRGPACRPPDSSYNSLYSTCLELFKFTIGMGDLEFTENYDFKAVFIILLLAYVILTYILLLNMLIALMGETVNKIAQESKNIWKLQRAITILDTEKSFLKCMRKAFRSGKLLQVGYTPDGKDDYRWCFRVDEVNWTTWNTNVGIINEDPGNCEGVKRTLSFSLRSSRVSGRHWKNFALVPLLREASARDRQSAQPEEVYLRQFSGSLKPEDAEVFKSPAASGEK
Procedure, shortened: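 Doxycycline-induced (1 μg/mL, 2 days) hVR-1-HEK293 cells loaded with Fluo-3/AM for 90 min at 37° C, then stimulated with 1 μM capsaicin. Calcium influx expressed as background-corrected fluorescence relative to positive control, analysed by Hill equation and graded by activity criteria.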

ICR male mice = experiment: Phenyl-p-quinone (PBQ)-induced writhing experiment using mice; assay type: in vivo; details: orally administered, PBQ (0.02%) intraperitoneally after 1 hour, writhing counted for 10 min
Protocol: In order to evaluate the effect on pain of the compounds prepared in the Examples, behaviors such as twisting or writhing of body resulted from pain were verified by the phenyl-p-quinone (PBQ)-induced writhing experiment using mice. 5 week-old ICR male mice were used as experimental animals and PBQ (0.02%), as a chemical stimulator. The suspensions of 20 mg of the compounds of the present invention and an excipient such as Na—CMC (sodium carboxymethyl cellulose) in 10 mL of saline were used as test compounds. The test compounds were orally administered to the mice and after 1 hour, PBQ was intraperitoneally administrated in an amount of 10 mL per kg of body weight. Also, as a control group, equivalent amounts of BCTC were administered. The writhing number of each mouse was measured for 10 min starting from 5 min after the administration, and the analgesic effect was verified by counting the reduced number compared to the control group administered with only excipient and calculating the % inhibitory rate according to the following Formula 2. % inhibition rate=(writhing # of control group−writhing # of test group)/writhing # of control group×100 [Formula 2]

SMILES	IC50 [1]	I.A. (inhibitory activity), % inhibition rate of writhing (ICR male mice)
C=Cc1ccc(N2c3cccc(-c4nc5cc(F)c(F)cc5[nH]4)c3OC[C@@H]2CO)nc1 [Example 69, [(S)-8-(5,6-difluoro-1H-benzimidazol-2-yl)-4-(5-vinyl-pyridin-2-yl)-3,4-dihydro-2H-benzo[1,4]oxazin-3-yl]-methanol]	0.02 to 0.1 µM	+++ (51-80%)
CCc1ccc(N2c3cccc(-c4nc5c(Cl)cc(C(F)(F)F)cc5[nH]4)c3OC[C@@H]2CO)nc1 [Example 80, [(S)-8-(4-chloro-6-trifluoromethyl-1H-benzimidazol-2-yl)-4-(5-ethyl-pyridin-2-yl)-3,4-dihydro-2H-benzo[1,4]oxazin-3-yl]-methanol]	< 0.02 µM	+++ (51-80%)
CCc1ccc(N2c3cccc(-c4nc5c(Br)cc(C(F)(F)F)cc5[nH]4)c3OC[C@@H]2CO)nc1 [Example 81, [(S)-8-(4-bromo-6-trifluoromethyl-1H-benzimidazol-2-yl)-4-(5-ethyl-pyridin-2-yl)-3,4-dihydro-2H-benzo[1,4]oxazin-3-yl]-methanol]	< 0.02 µM	+++ (51-80%)
CCc1ccc(N2c3cccc(-c4nc5ccc(OC(F)(F)F)cc5[nH]4)c3OC[C@@H]2CO)nc1 [Example 82, [(S)-4-(5-ethyl-pyridin-2-yl)-8-(6-trifluoromethoxy-1H-benzimidazol-2-yl)-3,4-dihydro-2H-benzo[1,4]oxazin-3-yl]-methanol]	0.02 to 0.1 µM	+++ (51-80%)
CCc1ccc(N2c3cccc(-c4nc5c(F)cc(Br)cc5[nH]4)c3OC[C@@H]2CO)nc1 [Example 85, [(S)-8-(6-bromo-4-fluoro-1H-benzimidazol-2-yl)-4-(5-ethyl-pyridin-2-yl)-3,4-dihydro-2H-benzo[1,4]oxazin-3-yl]-methanol]	0.02 to 0.1 µM	+++ (51-80%)
CCc1ccc(N2c3cccc(-c4nc5c(F)cc(F)cc5[nH]4)c3OC[C@@H]2CO)nc1 [Example 86, [(S)-8-(4,6-difluoro-1H-benzimidazol-2-yl)-4-(5-ethyl-pyridin-2-yl)-3,4-dihydro-2H-benzo[1,4]oxazin-3-yl]-methanol]	< 0.02 µM	+++ (51-80%)
CCc1ccc(N2c3cccc(-c4nc5ccc(C#N)cc5[nH]4)c3OC[C@@H]2CO)nc1 [Example 87, 2-[(S)-4-(5-ethyl-pyridin-2-yl)-3-hydroxymethyl-3,4-dihydro-2H-benzo[1,4]oxazin-8-yl]-3H-benzimidazol-5-carbonitrile]	< 0.02 µM	+++ (51-80%)
COC[C@H]1COc2c(-c3nc4ccc(C(C)(C)C)cc4[nH]3)cccc2N1c1ccc(C)cn1 [Example 88, (S)-8-(6-tert-butyl-1H-benzimidazol-2-yl)-3-methoxymethyl-4-(5-methyl-pyridin-2-yl)-3,4-dihydro-2H-benzo[1,4]oxazine]	< 0.02 µM	++ (20˜50%)
COC[C@H]1COc2c(-c3nc4ccc(Br)cc4[nH]3)cccc2N1c1ccc(C)cn1 [Example 89, (S)-8-(6-bromo-1H-benzimidazol-2-yl)-3-methoxymethyl-4-(5-methyl-pyridin-2-yl)-3,4-dihydro-2H-benzo[1,4]oxazine]	< 0.02 µM	+++ (51-80%)
COC[C@H]1COc2c(-c3nc4ccc(C(F)(F)F)cc4[nH]3)cccc2N1c1ccc(C)cn1 [Example 90, (S)-3-methoxymethyl-4-(5-methyl-pyridin-2-yl)-8-(6-trifluoromethyl-1H-benzimidazol-2-yl)-3,4-dihydro-2H-benzo[1,4]oxazine]	< 0.02 µM	+++ (51-80%)
COC[C@H]1COc2c(-c3nc4ccc(Cl)cc4[nH]3)cccc2N1c1ccc(C)cn1 [Example 91, (S)-3-methoxymethyl-4-(5-methyl-pyridin-2-yl)-8-(6-chloro-1H-benzimidazol-2-yl)-3,4-dihydro-2H-benzo[1,4]oxazine]	< 0.02 µM	++ (20˜50%)

More lines, main results first:

IC50 [1]	SMILES	I.A. (inhibitory activity), % inhibition rate of writhing (ICR male mice)
< 0.02 µM	COC[C@H]1COc2c(-c3nc4c(Cl)cc(C(F)(F)F)cc4[nH]3)cccc2N1c1ccc(C)cn1 [Example 92, (S)-8-(4-chloro-6-trifluoromethyl-1H-benzimidazol-2-yl)-3-methoxymethyl-4-(5-methyl-pyridin-2-yl)-3,4-dihydro-2H-benzo[1,4]oxazine]	++ (20˜50%)
< 0.02 µM	COC[C@H]1COc2c(-c3nc4c(Br)cc(C(F)(F)F)cc4[nH]3)cccc2N1c1ccc(C)cn1 [Example 93, (S)-8-(4-bromo-6-trifluoromethyl-1H-benzimidazol-2-yl)-3-methoxymethyl-4-(5-methyl-pyridin-2-yl)-3,4-dihydro-2H-benzo[1,4]oxazine]	++ (20˜50%)
< 0.02 µM	COC[C@H]1COc2c(-c3nc4c(F)cc(Br)cc4[nH]3)cccc2N1c1ccc(C)cn1 [Example 94, (S)-8-(6-bromo-4-fluoro-1H-benzimidazol-2-yl)-3-methoxymethyl-4-(5-methyl-pyridin-2-yl)-3,4-dihydro-2H-benzo[1,4]oxazine]	+++ (51-80%)
< 0.02 µM	COC[C@H]1COc2c(-c3nc4cc(Cl)c(Cl)cc4[nH]3)cccc2N1c1ccc(C)cn1 [Example 95, (S)-8-(5,6-dichloro-1H-benzimidazol-2-yl)-3-methoxymethyl-4-(5-methyl-pyridin-2-yl)-3,4-dihydro-2H-benzo[1,4]oxazine]	+++ (51-80%)
< 0.02 µM	COC[C@H]1COc2c(-c3nc4c(C(F)(F)F)cc(C(F)(F)F)cc4[nH]3)cccc2N1c1ccc(C)cn1 [Example 96, (S)-8-(4,6-bis-trifluoromethyl-1H-benzimidazol-2-yl)-3-methoxymethyl-4-(5-methyl-pyridin-2-yl)-3,4-dihydro-2H-benzo[1,4]oxazine]	++++ (>80%)
< 0.02 µM	COC[C@H]1COc2c(-c3nc4c(Br)cc(Br)cc4[nH]3)cccc2N1c1ccc(C)cn1 [Example 97, (S)-8-(4,6-dibromo-1H-benzimidazol-2-yl)-3-methoxymethyl-4-(5-methyl-pyridin-2-yl)-3,4-dihydro-2H-benzo[1,4]oxazine]	++ (20˜50%)
0.02 to 0.1 µM	COC[C@H]1COc2c(-c3nc4ccc(F)cc4[nH]3)cccc2N1c1ccc(C)cn1 [Example 98, (S)-8-(6-fluoro-1H-benzimidazol-2-yl)-3-methoxymethyl-4-(5-methyl-pyridin-2-yl)-3,4-dihydro-2H-benzo[1,4]oxazine]	++ (20˜50%)
0.02 to 0.1 µM	COC[C@H]1COc2c(-c3nc4ccc(OC(F)(F)F)cc4[nH]3)cccc2N1c1ccc(C)cn1 [Example 99, (S)-3-methoxymethyl-4-(5-methyl-pyridin-2-yl)-8-(6-trifluoromethoxy-1H-benzimidazol-2-yl)-3,4-dihydro-2H-benzo[1,4]oxazine]	++++ (>80%)
0.02 to 0.1 µM	COC[C@H]1COc2c(-c3nc4ccc(C)c(C)c4[nH]3)cccc2N1c1ccc(C)cn1 [Example 100, (S)-8-(6,7-dimethyl-1H-benzimidazol-2-yl)-3-methoxymethyl-4-(5-methyl-pyridin-2-yl)-3,4-dihydro-2H-benzo[1,4]oxazine]	++ (20˜50%)
0.02 to 0.1 µM	COC[C@H]1COc2c(-c3nc4ccc(C#N)cc4[nH]3)cccc2N1c1ccc(C)cn1 [Example 101, 2-[(S)-3-methoxymethyl-4-(5-methyl-pyridin-2-yl)-3,4-dihydro-2H-benzo[1,4]oxazin-8-yl]-3H-benzimidazol-5-carbonitrile]	+++ (51-80%)
< 0.02 µM	COC[C@H]1COc2c(-c3nc4cc(F)c(F)cc4[nH]3)cccc2N1c1ccc(C)cn1 [Example 102, (S)-8-(5,6-difluoro-1H-benzimidazol-2-yl)-3-methoxymethyl-4-(5-methyl-pyridin-2-yl)-3,4-dihydro-2H-benzo[1,4]oxazine]	+++ (51-80%)
< 0.02 µM	COC[C@H]1COc2c(-c3nc4cc(Cl)c(F)cc4[nH]3)cccc2N1c1ccc(C)cn1 [Example 103, (S)-8-(5-chloro-6-fluoro-1H-benzimidazol-2-yl)-3-methoxymethyl-4-(5-methyl-pyridin-2-yl)-3,4-dihydro-2H-benzo[1,4]oxazine]	+++ (51-80%)
< 0.02 µM	COC[C@H]1COc2c(-c3nc4c(C)cc(Br)cc4[nH]3)cccc2N1c1ccc(C)cn1 [Example 104, (S)-8-(6-bromo-4-methyl-1H-benzimidazol-2-yl)-3-methoxymethyl-4-(5-methyl-pyridin-2-yl)-3,4-dihydro-2H-benzo[1,4]oxazine]	+++ (51-80%)
